Experimental data taken from patent US20230382948A1, “DELIVERY OF ENDOTHELIAL CELL-LADEN MICROGEL ELICITS ANGIOGENESIS IN SELF-ASSEMBLING ULTRASHORT PEPTIDE HYDROGELS” (KING ABDULLAH UNIVERSITY OF SCIENCE AND TECHNOLOGY, priority 2020, published 2023).

Tested on: fibroblasts (HDFn)
Assay: Cell culture on microgels, HDFn
Format: cell-based, human
Conditions: first 24 h of culture
Experimental: A 1.2×10^6 amount of cells suspended in 4 mL of complete cell culture media (300,000 cells/mL) was mixed with 200 μL of microgels by pipetting. The mix was seeded at […] in a 24-well low binding plate and kept at 37° C., 95% humidity, and 5% CO2 under rocker conditions at 30 rpm for 24 h. Then, cell-laden microgels were transferred into a tube by pipetting and spun down at 50 g for 5 min. The upper layer, containing cells not adherent to the microgels, was discarded. At this moment, cell-laden microgels were either resuspended with complete cell culture media to continue cell culture under rocker conditions or processed for staining.
The cell-laden microgels were fixed with 4% formaldehyde (v/v) in PBS and incubated for 30 min at 22° C. Later, formaldehyde was removed by centrifugation, and cell-laden microgels were washed twice with PBS in a similar way. Permeabilization buffer (6.3 mM MgCl2, 233.7 mM sucrose, 0.5% (v/v) Triton® X-100 in PBS) was kept at −20° C. and thawed just before use. […]
Proliferative cells were labeled by incubating cell-laden microgels with […] EdU in complete medium for 24 h in rocking culture at 30 rpm. […] EdU was detected following the manufacturer instructions by incubating cell-laden microgels with a Click-iT Plus reaction cocktail for 30 min at 22° C. protected from light. […]

| Substance | HDFn cell adhesion and morphology on microgels |
| --- | --- |
| Ac-Ile-Val-Cha-Lys-NH2 (IVXK; HELM PEPTIDE1{[ac].I.V.[Cha].K.[am]}$$$$V2.0; SMILES CC[C@H](C)[C@H](NC(C)=O)C(=O)N[C@H](C(=O)N[C@@H](CC1CCCCC1)C(=O)N[C@@H](CCCCN)C(N)=O)C(C)C) [IVZK, self-assembling ultrashort tetrapeptide, Z = cyclohexylalanine, forms hydrogels and microgels] | cell adhesion and stretched morphology |
| Ac-Ile-Val-Phe-Lys-NH2 (Ac-IVFK-NH2) [self-assembling ultrashort tetrapeptide, forms hydrogels and microgels] | cell adhesion and stretched morphology |
